Values of other authors as cited in publication PMC3867298 (Clinical cancer research : an official journal of the …, 2010).

Tested on: renal cell carcinoma patients
Conditions: 375 renal cell carcinoma patients, recommended phase 2 dose; cited from earlier work

Compound: CCN(CC)CCNC(=O)c1c(C)[nH]c(/C=C2\C(=O)Nc3ccc(F)cc32)c1C [sunitinib]
- Patients with at least 1 treatment-related dose reduction: 32%
